Target: T1, Epidermal growth factor receptor (EGFR) kinase (Homo sapiens, UniProt P00533)
T1 construct: EGFR protein (GST-tagged)
Assay: HTRF KinEASE-TK kinase assay with GST-tagged EGFR
Format: biochemical

T1 sequence (P00533 25-1210): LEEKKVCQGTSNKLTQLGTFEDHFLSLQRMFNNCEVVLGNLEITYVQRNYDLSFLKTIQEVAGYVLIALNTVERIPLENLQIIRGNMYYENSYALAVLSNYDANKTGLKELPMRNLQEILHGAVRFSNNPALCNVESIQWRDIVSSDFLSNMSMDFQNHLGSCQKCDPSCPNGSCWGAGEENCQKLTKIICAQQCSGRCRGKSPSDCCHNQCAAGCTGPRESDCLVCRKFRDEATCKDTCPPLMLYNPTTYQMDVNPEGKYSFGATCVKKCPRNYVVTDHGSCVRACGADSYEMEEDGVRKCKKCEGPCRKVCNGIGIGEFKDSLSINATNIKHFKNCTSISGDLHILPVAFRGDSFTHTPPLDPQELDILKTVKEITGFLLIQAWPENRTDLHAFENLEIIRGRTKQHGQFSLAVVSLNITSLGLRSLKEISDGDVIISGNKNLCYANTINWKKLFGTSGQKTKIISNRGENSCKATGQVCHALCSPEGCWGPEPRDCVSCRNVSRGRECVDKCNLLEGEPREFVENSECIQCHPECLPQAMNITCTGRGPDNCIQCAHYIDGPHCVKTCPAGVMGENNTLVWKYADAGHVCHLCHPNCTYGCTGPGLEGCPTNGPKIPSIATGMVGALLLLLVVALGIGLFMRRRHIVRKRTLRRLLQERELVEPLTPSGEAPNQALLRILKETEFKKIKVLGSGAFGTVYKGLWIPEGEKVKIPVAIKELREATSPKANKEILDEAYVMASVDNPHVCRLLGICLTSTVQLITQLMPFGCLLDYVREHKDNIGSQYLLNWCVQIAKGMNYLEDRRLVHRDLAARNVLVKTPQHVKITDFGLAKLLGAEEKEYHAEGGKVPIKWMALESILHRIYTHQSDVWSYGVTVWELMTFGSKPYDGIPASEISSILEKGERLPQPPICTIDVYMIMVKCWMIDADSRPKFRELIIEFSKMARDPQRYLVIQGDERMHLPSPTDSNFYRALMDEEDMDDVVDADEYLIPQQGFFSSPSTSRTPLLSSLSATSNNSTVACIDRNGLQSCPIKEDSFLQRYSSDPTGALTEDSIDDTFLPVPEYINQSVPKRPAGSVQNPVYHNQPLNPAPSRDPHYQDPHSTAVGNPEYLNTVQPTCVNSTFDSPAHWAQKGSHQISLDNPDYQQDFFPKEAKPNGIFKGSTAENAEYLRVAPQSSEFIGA

CC(C)=CCC[C@](C)(O)[C@H]1CC[C@]2(C)[C@@H]1[C@H](O)C[C@@H]1[C@@]3(C)CC[C@H](O[C@@H]4O[C@H](CO)[C@@H](O)[C@H](O)[C@H]4O)C(C)(C)[C@@H]3CC[C@]12C [20(S)-ginsenoside Rh2]
IC50: 2780 ± 160 nM
